Measured values published in patent publication US20180015144A1, “AGONISTS OF THE NOGO-A S1PR PATHWAY FOR THE TREATMENT OF GLIOBLASTOMA” (UNIVERSITAT ZURICH, priority 2015, published 2018).

Tests used:
[1] = target: S1PR2 (Homo sapiens, UniProt O95136); settings: cited from earlier work
[2] = system: other S1P receptors; settings: cited from earlier work
[3] = system: GBM MVEC; test: Mean traction forces of adhered cells on nanopillars coated with Nogo-A proteins; type: cell-based, human
Procedure: (§1) For time-lapse- and force generation experiments, Vybrant/Dil (Invitrogen, 1:200)-labeled GBM MVEC (10^4 cells ml^−1) were added onto the nanopillar structures. The imaging process was started 1 h after seeding GBM MVEC on nanopillars. To calculate the traction force exerted by GBM MVEC on the nanopillar surface, the deflection of the nanopillar tip was imaged with confocal microscopy using a Leica confocal microscope SP5 with a63x, oil immersion, NA1.43 objective.
(§2) During image acquisition, GBM MVEC were kept at 37° C. and 10% CO2. Following laser wavelengths were used to acquire images of nanopillar arrays and Di-labeled cells: 488 nm (nanopillar structures) and 546 nm (Dil).
To quantitatively address the effects of coated Nogo-A proteins on adhesion between endothelial cells (GBM MVEC) and nanopillars, nanopillars were coated with Nogo-A Delta 20, Nogo-A Delta 21, or Fibronectin (blank condition).
To calculate the total force applied by endothelial cells (GBM MVEC) on the substrates, the average displacement of 800-5000 nanopillars per single cell was used. Single GBM MVEC were imaged for a total time of 20 min, with a scanning ratio of 30 s per frame. For each condition, at least three individual GBM MVEC were analyzed.
To address the role of Nogo-A receptors, endothelial cells were pre-incubated for 30 min before seeding with the pharmacological blocker of S1PR2 (JTE-013, 10 μM) (Tocris Bioscience), with the pharmacological blocker of S1PR1 and S1PR3 (VPC 23019, 10 μM) (Tocris Bioscience), or with the pharmacological blocker of S1PR1, 3, 4, and 5 (FTY720, 10 μM) (Tocris Bioscience).
(§3) To quantitatively address the acute effects of soluble Nogo-A proteins on GBM MVEC retraction, Dil-labeled endothelial cells on nanopillars coated with 25 μg*ml^−1 human Fibronectin were treated 30 min after cell seeding with soluble Nogo-A Delta 20 and Nogo-A Delta 21 at 1 μM. Single GBM MVEC were then imaged for a total time of 1.5 h, with a scanning ratio of 30 s per frame. The nanopillar displacements were recorded as sequence images when the GBM MVEC applied forces on the nanopillar surface. For each condition, at least three individual GBM MVEC were analyzed. To address the role of Nogo-A receptors, endothelial cells were cultured for 30 min before incubating the cells for another 30 min with the pharmacological blocker of S1PR2 (JTE-013, 10 μM) (Tocris Bioscience), with the pharmacological blocker of S1PR1 and S1PR3 (VPC 23019, 10 μM) (Tocris Bioscience), or with the pharmacological blocker of S1PR1, 3, 4, and 5 (FTY720, 10 μM) (Tocris Bioscience). Then soluble Nogo-A Delta 20 (at 1 μM) or Nogo-A Delta 21 (at 1 μM) was added and lamellipodia and filopodia were imaged for 1h. The displacements (x) of the nanopillar tips induced by whole endothelial cells (for experiments with coated Nogo-A proteins) or by single endothelial filopodia (for experiments with soluble Nogo-A proteins) were measured using the program Diatrack (Powerful Particle Tracking, Semasopht). Finally, corresponding traction forces were calculated using the formula F=k*x, where k represents the spring constant of the nanopillars, 78.76 nN/μm.

[4] = system: GBM MVEC filopodia; test: Peak traction forces of filopodia on nanopillars, soluble Nogo-A proteins; type: cell-based, human
Procedure: as §1, §2, §3

[5] = system: GBM MVEC; test: Time-lapse imaging of lamellipodia and filopodia retraction on nanopillars, soluble Nogo-A proteins; type: cell-based, human
Procedure: as §1, §2
To quantitatively address the acute effects of soluble Nogo-A proteins on GBM MVEC retraction, Dil-labeled endothelial cells on nanopillars coated with 25 μg*ml^−1 human Fibronectin were treated 30 min after cell seeding with soluble Nogo-A Delta 20 and Nogo-A Delta 21 at 1 μM. Single GBM MVEC were then imaged for a total time of 1.5 h, with a scanning ratio of 30 s per frame. The nanopillar displacements were recorded as sequence images when the GBM MVEC applied forces on the nanopillar surface. For each condition, at least three individual GBM MVEC were analyzed. […] Finally, corresponding traction forces were calculated using the formula F=k*x, where k represents the spring constant of the nanopillars, 78.76 nN/μm.

[6] = system: GBM MVECs; test: Transwell migration assay (VEGF-A + fibronectin induced); type: cell-based, human; settings: for migration potential despite Nogo-A Delta 20 exposure, blocker alone: pre-incubation with blocker 10 μM; for VEGF+FN-induced migration: protein coated on the underside of the insert, different concentrations
Procedure: For the migration assays, the undersides of 24-well plate inserts (FluoroBlock, BD Falcon) were coated with 0.5 ml PBS containing 10 μg*ml^−1 fibronectin (recombinant human fibronectin, Biopur AG) and different concentrations of Nogo-A Delta 21, Nogo-A Delta 20 and Nogo-66 (R&D Systems) and incubated for 1 h at 37° C. Endothelial cells (GBM MVECs) were starved in migration medium (DMEM+0.25% BSA) 4 h before detachment with accutase (PAA Laboratories). Cells were resuspended in migration medium (1 Mio ml^−1) and labeled with calcein AM (Molecular Probes, 4 μg ml^−1), followed by washing with HBSS and resuspending in migration medium (125,000 cells ml^−1). The coated inserts were washed and the bottom chamber was prepared by adding migration medium with or without human VEGF-A (PeproTech Inc., 10 ng ml^−1). The inserts were then put in an empty 24-well plate (BD Falcon) and calcein AM-labeled endothelial cells (50,000 cells per insert) were added.
The loaded inserts were transferred to the prepared cluster plate and incubated at 37° C., 5% CO2 for 4 h. A cell titration plate was prepared by adding different cell numbers (50,000/25,000/12,500/6,250/3,125/1,563/782 cells per well) in triplicates in 1.2 ml migration medium and incubated in parallel. The fluorescence was measured after 4 h by a cytofluorometer (Tean Infinite Pro 200) and the number of migrated cells was calculated based on the titration curve.
To ask how co-signaling of Nogo-A Delta 20/Nogo-66 coated to the underside of transwell inserts and of its receptors affect cell migration, calcein-AM labeled GBM MVECs were incubated for 1 h with the pharmacological blockers of-the Nogo-A Delta 20 receptor S1PR2 (JTE-013, 1 μM, 10 μM), with the pharmacological blocker of S1PR1 and S1PR3 (VPC 23019, 10 μM) (Tocris Bioscience), and with the competitive inhibitor of the Nogo-66 receptor NgR1 (NEP1-40, 4.6 μg/ml) during calcein-AM labeling. After washing, the cell medium was again supplied with these pharmacological blockers, prior to cell addition in the upper chamber of the transwell insert.

[7] = target: sphingosin-1 phosphate (S1P) receptor 2 (S1PR2) (human) (UniProt O95136); test: cell-based or functional assay
[8] = system: VEGFR2; test: VEGFR2 phosphorylation at Tyr1175 in HUVECs, immunofluorescent antibody staining; type: cell-based; settings: protein 1 μM
Procedure: (§4) For the different treatment conditions HUVECs were seeded on 8 well dishes (LabTek chamber slides, immunofluorescence) or 6 well dishes (western blot) and left for 2 to 3 days until the culture was confluent. After a 4 h starvation of the cells in EBM-2 medium (Lonza, Switzerland), the cells were treated with Nogo-A Delta 20 (1 μM), Nogo-A Delta 20 (1 μM) and VEGF-A ([…]), Nogo-A Delta 21 (1 μM), Nogo-A Delta 21 (1 μM) and VEGF ([…]), or VEGF-A alone ([…]) in EBM-2 medium, respectively. The cells were either fixed in 4% formaldehyde for 15 min at room temperature or lysed in RIPA buffer. After fixation, HUVECs were stained with anti-phosphoVEGFR2 antibody (pTyr1175, #2478, Cell Signaling), F-actin (phalloidin Alexa Fluor 633, Molecular Probes) and DAPI. The same antibodies were used to detect VEGFR2 and phosphoVEGFR2 in western blot.

[9] = system: VEGFR2; test: VEGFR2 phosphorylation at Tyr1175 and total VEGFR2 in HUVECs, western blot; type: cell-based; settings: 15 min, protein 1 μM
Procedure: as §4

[10] = system: endothelial tip cells within the glioblastoma; test: Injection by osmotic minipumps in a mouse model of glioblastoma, endothelial tip cell count; type: in vivo; settings: 20 days post-injection, versus scrambled Nogo-A Delta 20
Excerpt: Coronal brain sections (40 μm) of glioblastoma-bearing mice (20 days post-injection, 20D-PI) were perfused with FITC Lectin (green) to visualize perfused blood vessels and stained for Endomucin to visualize blood vessels including endothelial tip cells (red) and the general nuclear marker DAPI (blue). The boxed areas are enlarged in d-f and in g-i. (a-f). Endomucin^+ endothelial tip cells (red, arrows) and FITC Lectin^+ established blood vessel (green) (d-f) are shown within the glioblastoma. Endomucin seems to be specific for blood vessels within the glioblastoma (red) (as compared to Endomucin^− blood vessels in the surrounding normal brain; green). (d,f,g,i) Note the nicely visualized Endomucin^+ endothelial tip cells including filopodial protrusions (red, arrows) (g) within the glioblastoma. (j) Injection of Nogo-A Delta 20 decreases the mean number of endothelial tip cells within the glioblastoma, showing its inhibitory effect on mouse glioblastoma blood vessels.
GL261 glioma cell implantation into adult (two months old) C57BL/6 animals was performed as previously described (Aulwurm et al., Int J Cancer 2006;118, 1728-1735; Biollaz et al., Eur J Immunol 2009;39, 1323-1333j). Briefly, a total of 2×10^4 GL261 cells were inoculated through a borehole placed 1 mm lateral and 2 mm dorsal to the bregma at 3 mm depth using a Hamilton syringe. […]

[11] = pre-incubation with blocker 10 μM, Nogo-A Delta 20-coated nanopillars
[12] = pre-incubation with blocker 10 μM, Nogo-A Delta 20 1 μM

sphingosin-1 phosphate (S1P) receptor 2 (S1PR2) (human), sequence (O95136 whole entry): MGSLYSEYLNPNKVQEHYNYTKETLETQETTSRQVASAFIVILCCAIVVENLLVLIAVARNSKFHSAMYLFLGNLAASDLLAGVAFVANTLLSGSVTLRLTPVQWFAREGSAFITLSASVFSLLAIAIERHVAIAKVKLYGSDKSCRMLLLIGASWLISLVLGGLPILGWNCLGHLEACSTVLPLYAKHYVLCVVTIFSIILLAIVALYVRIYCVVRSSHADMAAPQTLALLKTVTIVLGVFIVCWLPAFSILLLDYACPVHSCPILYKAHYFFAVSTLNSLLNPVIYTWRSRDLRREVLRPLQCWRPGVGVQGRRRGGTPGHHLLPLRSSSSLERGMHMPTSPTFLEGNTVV
S1PR2, sequence (O95136 whole entry): as above

Molecule: Cc1cc(C(=O)Cn2cc(C#N)ccc2=O)c(C)n1Cc1ccccc1 [CYM-5520]
- selectivity for S1PR2 [1]: highly selective
- activation of other S1P receptors [2]: do not activate

Molecule: CCCCCCCCc1ccc(CCC(N)(CO)CO)cc1 [FTY720]
- effect of blocker on mean traction forces induced by Nogo-A Delta 20 coating [3, 11]: did not decrease
- effect of blocker on average peak traction forces of Nogo-A Delta 20 treated filopodia [4, 12]: did also decrease

Molecule: Cc1nn(C)c2nc(NNC(=O)Nc3cc(Cl)nc(Cl)c3)cc(C(C)C)c12 [JTE-013]
- effect of blocker on soluble Nogo-A Delta 20-induced retraction of lamellipodia and filopodia [5, 12]: counterbalanced
- mean traction forces induced by Nogo-A Delta 20 coating after blocker [3, 11]: ~4.1 nN
- average peak traction forces of Nogo-A Delta 20 treated filopodia after blocker [4, 12]: ~4.5 nN
- migration potential despite Nogo-A Delta 20 exposure, blocker alone [6]: significantly increases

Molecule: CCCCCCCCc1cccc(NC(=O)[C@H](N)COP(=O)(O)O)c1 [VPC 23019]
- effect of blocker on mean traction forces induced by Nogo-A Delta 20 coating [3, 11]: did not decrease
- effect of blocker on average peak traction forces of Nogo-A Delta 20 treated filopodia [4, 12]: did also decrease
- inhibitor effect of Nogo-A Delta 20 on migration, combined blockers ([6]; combined pre-incubation of VPC 23019 with JTE-013): strong reduction of the inhibitor effect
- migration potential despite Nogo-A Delta 20 exposure, blocker alone [6]: no effect on its own

Molecule: Cc1ccc(Sc2ccc(C3SCCS3)cc2[N+](=O)[O-])cc1 [XAX-162]
- selectivity for S1PR2 [1]: highly selective
- activation of other S1P receptors [2]: do not activate

Molecule: NEP1-40: competitive antagonist of Nogo-66, inhibitor of the Nogo-66 receptor NgR1 (RIYKGVIQAIQKSDEGHPFRAYLESEVAISEELVQKYSNS; UniProt Q9NQC3 1055-1094, looked up, fragment)
- migration potential upon exposure to Nogo-66 coating ([6]; pre-incubation with NEP1-40): significantly increases

Molecule: Nogo-A Delta 20 (ligand)
- mean traction forces of GBM MVECs on Nogo-A Delta 20-coated nanopillars [7]: 12 nN
- peak traction forces of GBM MVEC filopodia on nanopillars, soluble Nogo-A Delta 20 at 1 µM [7]: 10 nN

B1: Nogo-66: inhibitory domain of Nogo, 66 aa; human aa 1055-1120 (SEQ ID NO 004), rat aa 1026-1091 (SEQ ID NO 003) (protein)
chain: RIYKGVIQAIQKSDEGHPFRAYLESEVAISEELVQKYSNSALGHVNCTIKELRRLFLVDDLVDSLK
- VEGF+FN-induced migration [6]: dose-dependently inhibited

B2: Nogo-A Delta 20: Nogo-A specific inhibitory domain, 182 aa; human aa 567-748 (SEQ ID NO 002), rat aa 544-725 (SEQ ID NO 001) (protein, UniProt Q9NQC3 567-748, looked up, fragment)
chain: TGTKIAYETKMDLVQTSEVMQESLYPAAQLCPSFEESEATPSPVLPDIVMEAPLNSAVPSAGASVIQPSSSPLEASSVNYESIKHEPENPPPYEEAMSVSLKKVSGIKEEIKEPENINAALQETEAPYISIACDLIKETKLSAEPAPDFSDYSEMAKVEQPVPDHSELVEDSSPDSEPVDLF
- retraction of GBM MVEC lamellipodia and filopodia ([5]; soluble protein 1 μM, over 30 min to 1 h): retraction
- mean traction forces and pillar displacements induced by adhered cells (change) ([3]; protein coated on nanopillars): reduced
- mean traction forces on the underlying nanopillars ([3]; protein coated on nanopillars): ~12 nN
- peak traction forces of filopodia on the underlying nanopillars ([4]; soluble protein 1 μM): ~10 nN
- VEGF+FN-induced migration [6]: dose-dependently inhibited
- phosphoVEGFR2 after 30 min ([8]; with VEGF-A for 30 min): no phosphoVEGFR2 was detectable
- VEGFR2 phosphorylation at Tyr1175 compared to Nogo-A Delta 21 conditions ([8]; with VEGF-A, peak after 15 min): considerably lower
- amount of phosphoVEGFR2 protein ([9]; with VEGF-A): reduced
- total amount of VEGFR2 protein ([9]; with VEGF-A): reduced
- VEGFR2 phosphorylation, protein alone ([9]; without VEGF-A): did not induce
- mean number of endothelial tip cells within the glioblastoma [10]: decreases
